Where a SMILES comes first, the peptide text is derived from it. The star is where a group is joined. X1 = CSCCc1ccc(NC(=O)NCc2ccc3c(c2)CN(C2CCC(=O)N(CN*)C2=O)C3=O)cc1Cl; Hexanoyl(6-maleimido) = O=C1C=CC(=O)N1CCCCCC(=O)*
T1: papain (Carica papaya, UniProt P00784)
T1 sequence (P00784 134-345): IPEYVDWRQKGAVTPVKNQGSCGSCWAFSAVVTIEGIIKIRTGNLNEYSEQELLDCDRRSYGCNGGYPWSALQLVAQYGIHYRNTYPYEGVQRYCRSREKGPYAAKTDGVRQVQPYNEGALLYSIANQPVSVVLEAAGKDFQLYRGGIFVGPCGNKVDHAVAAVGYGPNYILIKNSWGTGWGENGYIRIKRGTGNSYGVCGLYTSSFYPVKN

B1: CD33-D Antibody-Compound (XL) conjugate (antibody, V domains shown)
VH: EVQLVQSGAEVKKPGSSVKVSCKASGYTITDSNIHWVRQAPGQSLEWIGYIYPYNGGTDYNQKFKNRATLTVDNPTNTAYMELSSLRSEDTAFYYCVNGNPWLAYWGQGTLVTVSS
VL: DIQLTQSPSTLSASVGDRVTITCRASESLDNYGIRFLTWFQQKPGKAPKLLMYAASNQGSGVPSRFSGSGSGTEFTLTISSLQPDDFATYYCQQTKEVPWSFGQGTKVEVK
modifications: Compound (XL) linker-payload on reduced interchain cysteine of the constant region, outside this domain; Compound (XL) linker-payload (maleimide) on reduced interchain cysteines of the constant regions, outside this domain; 8.0 Compound (XL)/antibody by LC-MS (Example 2-1)
notes: Antibody-drug conjugate (BRD4 degrader payload)
B2: CD33-D antibody (antibody, V domains shown)
VH: B1 VH
VL: B1 VL
notes: also called anti-CD33 antibody CD33-D
B3: CD33-D Antibody-Compound (XIV) conjugate (antibody, V domains shown)
VH: B1 VH
VL: B1 VL
modifications: Compound (XIV) linker-payload on reduced interchain cysteine of the constant region, outside this domain; Compound (XIV) linker-payload on reduced interchain cysteines of the constant regions, outside this domain; 7.9 Compound (XIV)/antibody by LC-MS (Example 2-2)
notes: Antibody-drug conjugate

Assays:
[1] = tested on: MV-4-11 human acute myeloid leukemia cells; assay: In vivo MV-4-11 subcutaneous myeloid leukemia tumor model; parameters: species or system Athymic Nude mice; details: 10 mg/kg IP once a day for 14 days
Procedure: Subcutaneous tumor model—MV-4-11 human acute myeloid leukemia cells (1×10^7 cells in 0.1 mL) were subcutaneously inoculated into the right flank of female Athymic Nude mice. Mice were treated with each test article when the tumor size reached 100-150 mm^3. 10 mg/kg of CD33-D antibody-Compound (XL) conjugate (in 20 mM succinate, 8% sucrose, 0.01% Tween-20 pH 5.5) was delivered by intravenous administration (IV) once a week for 2 weeks. 0.4 mg/kg of Compound (XL) (in 5% NMP, 45% PEG300, 20 mM NaPi pH 6.5) and 10 mg/kg of ARV-825 (as described in Liu, et al. Chemistry & Biology 2015, volume 22, pages 755-763) in 1.5 mg/mL, 5% Kolliphor, HS15 WFI Buffer was treated by intraperitoneal administration (IP) once a day for 14 days. Tumor size and mouse body weight were measured twice per week. Subcutaneous tumor volume (mm^3) was calculated with the following formula: (a×b^2/2) where ‘b’ is the smallest diameter and ‘a’ is the largest diameter. The study endpoint is that individual mice were euthanized following respective tumor volume ≥1,000 mm^3 or day 60, whichever came first.

[2] = target: T1, papain; assay: Papain digestion 2 of linker-payload compounds, in vitro payload release; type: biochemical; details: for % Payload Released / By-Products: GGFG*G (payload-CH2NHC(O)CH2NH2, cleavage between two glycines of linker) / By-Products: uncleaved: 10 μM compound, papain 2 molar equivalents, 2 hours; for % Payload Released: PBS pH 7.4, 5% DMA, room temperature; for By-Products: GGFG*G (payload-CH2NHC(O)CH2NH2, cleavage between two glycines of linker) / By-Products: uncleaved: PBS pH 7.4, room temperature; for yield of desired payload released by papain (in words): papain treatment
Procedure: 10 μM of either Compound (XL), Compound (XI), Compound (XIV), Compound (XV), Compound (XII), or Compound (XVII) (PBS pH 7.4, 5% DMA co-solvent) was incubated with papain (2 molar equivalents) at room temperature for 2 hours with gentle shaking. The digests were extracted with 5 volumes of ice-cold acetonitrile and dried down, followed by reconstitution in 95:5:0.1 water:acetonitrile:formic acid. The samples were submitted for LC-MS analysis (Thermo Exploris 240) and using the appropriate reference standards, the released payload and/or incompletely cleaved linker byproducts were identified and quantified.

[3] = target: T2, β-glucuronidase (Escherichia coli, UniProt P05804); assay: β-Glucuronidase digestion, in vitro payload release; type: biochemical
T2 construct: purchased Sigma Type IX-A
T2 sequence (P05804 whole entry): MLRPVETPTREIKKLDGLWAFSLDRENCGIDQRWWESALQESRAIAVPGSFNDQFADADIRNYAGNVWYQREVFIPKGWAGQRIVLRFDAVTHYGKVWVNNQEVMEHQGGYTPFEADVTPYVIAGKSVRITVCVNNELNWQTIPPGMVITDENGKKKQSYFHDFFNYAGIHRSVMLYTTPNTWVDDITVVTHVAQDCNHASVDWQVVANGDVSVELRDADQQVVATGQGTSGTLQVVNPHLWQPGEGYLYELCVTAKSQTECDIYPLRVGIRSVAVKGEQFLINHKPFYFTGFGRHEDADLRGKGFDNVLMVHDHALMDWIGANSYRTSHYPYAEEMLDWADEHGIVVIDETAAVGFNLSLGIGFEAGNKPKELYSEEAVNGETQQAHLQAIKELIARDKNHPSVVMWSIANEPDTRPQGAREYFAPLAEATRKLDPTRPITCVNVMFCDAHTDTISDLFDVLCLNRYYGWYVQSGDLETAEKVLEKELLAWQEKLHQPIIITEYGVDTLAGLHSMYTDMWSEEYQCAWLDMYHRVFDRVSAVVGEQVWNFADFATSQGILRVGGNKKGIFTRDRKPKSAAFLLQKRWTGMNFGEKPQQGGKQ
Procedure: 10 μM Compound (XLI) was incubated with β-glucuronidase (Sigma, Type IX-A; 1 mg/mL solution in PBS, […]) and the reaction mixture was incubated at 37° C. for 3 hours with gentle shaking. The digests were extracted with 5 volumes of ice-cold acetonitrile and dried down, followed by reconstitution in 95:5:0.1 water:acetonitrile:formic acid. The samples were submitted for LC-MS analysis (Thermo Exploris 240) and using the appropriate reference standards, the released payload and/or incompletely cleaved linker byproducts were identified and quantified.

[4] = target: T3, CD33 (UniProt P20138 18-364, limits assumed); assay: flow cytometry binding to MV4-11 cells (procedure of Example 10)
T3 construct: whole, on cells; Endogenous antigen on the cell line; also called CD33 surface antigens
T3 sequence (P20138 18-364 limits assumed): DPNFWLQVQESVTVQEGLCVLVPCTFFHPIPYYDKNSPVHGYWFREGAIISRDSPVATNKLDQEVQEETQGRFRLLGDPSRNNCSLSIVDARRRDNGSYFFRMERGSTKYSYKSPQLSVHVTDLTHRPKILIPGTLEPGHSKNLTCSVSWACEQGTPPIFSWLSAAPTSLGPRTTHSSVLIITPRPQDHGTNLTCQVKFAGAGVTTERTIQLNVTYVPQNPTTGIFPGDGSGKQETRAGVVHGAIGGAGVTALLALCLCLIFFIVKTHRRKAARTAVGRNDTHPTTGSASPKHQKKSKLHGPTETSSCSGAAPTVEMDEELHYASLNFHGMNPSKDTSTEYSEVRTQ

Molecule	% Payload Released [2] [%]	By-Products: GGFG*G (payload-CH2NHC(O)CH2NH2, cleavage between two glycines of linker) [2]	By-Products: uncleaved [2]	yield of desired payload released by papain (in words) [2]	further results
Cc1sc2c(c1C)C(c1ccc(Cl)cc1)=N[C@@H](CC(=O)Nc1ccc(OCCOCCOCCOCCNc3cccc4c3C(=O)N(C3CCC(=O)NC3=O)C4=O)cc1)c1nnc(C)n1-2 (some centres unmarked) [ARV-825]	–	–	–	–	effect on MV-4-11 tumor growth [1]: inactive
O=C(CCCCCN1C(=O)C=CC1=O)NCC(=O)NCC(=O)N[C@@H](Cc1ccccc1)C(=O)NCC(=O)NCC(=O)NCN1C(=O)CCC(N2Cc3c(C#CCCCNC(=O)c4ccc(NC(=O)[C@@H]5NC6(CCCCC6)[C@@]6(C(=O)Nc7cc(Cl)ccc76)[C@H]5c5cccc(Cl)c5F)cc4)cccc3C2=O)C1=O (stereo partly drawn) [Compound (XII), (3′R,4'S,5′R)-6″-chloro-4′-(3-chloro-2-fluorophenyl)-N-(4-{[5-(2-{1-[(2-{2-[(2S)-2-(2-{2-[6-(2,5-dioxopyrrol-1-yl)hexanamido]acetamido}acetamido)-3-phenylpropanamido]acetamido}acetamido)methyl]-2,6-dioxopiperidin-3-yl}-1-oxo-3H-isoindol-4-yl)pent-4-yn-1-yl]carbamoyl}phenyl)-2″-oxo-1″H-dispiro[cyclohexane-1,2′-pyrrolidine-3′,3″-indole]-5′-carboxamide]	9.4	57.0%,	uncleaved 33.6%	lower yields of the desired payload	–
Cc1sc2c(c1C)C(c1ccc(Cl)cc1)=N[C@@H](CC(=O)NCCCCCC(=O)NCc1cccc3c1C(=O)N(C1CCC(=O)N(CNC(=O)CNC(=O)CNC(=O)[C@H](Cc4ccccc4)NC(=O)CNC(=O)CNC(=O)CCCCCN4C(=O)C=CC4=O)C1=O)C3=O)c1nnc(C)n1-2 (stereo partly drawn) [Compound (XIV), 6-{2-[(9S)-7-(4-chlorophenyl)-4,5,13-trimethyl-3-thia-1,8,11,12-tetraazatricyclo[8.3.0.0^{2,6}]trideca-2(6),4,7,10,12-pentaen-9-yl]acetamido}-N-[(2-{1-[(2-{2-[(2S)-2-(2-{2-[6-(2,5-dioxopyrrol-1-yl)hexanamido]acetamido}acetamido)-3-phenylpropanamido]acetamido}acetamido)methyl]-2,6-dioxopiperidin-3-yl}-1,3-dioxoisoindol-4-yl)methyl]hexanamide]	11.6	40.5%,	uncleaved 47.9%	lower yields of the desired payload	–
Cn1cc(-c2cc(NC(=O)CCCCC(=O)NCCCCNc3cccc4c3C(=O)N(C3CCC(=O)N(CNC(=O)CNC(=O)[C@H](Cc5ccccc5)NC(=O)CNC(=O)CNC(=O)CCCCCN5C(=O)C=CC5=O)C3=O)C4=O)ccc2Oc2ccc(F)cc2F)c2cc[nH]c2c1=O.O=C(O)C(F)(F)F (stereo partly drawn) [Compound (XL), N′-[4-(2,4-difluorophenoxy)-3-{6-methyl-7-oxo-1H-pyrrolo[2,3-c]pyridin-4-yl}phenyl]-N-[4-({2-[1-({2-[(2S)-2-(2-{2-[6-(2,5-dioxopyrrol-1-yl)hexanamido]acetamido}acetamido)-3-phenylpropanamido]acetamido}methyl)-2,6-dioxopiperidin-3-yl]-1,3-dioxoisoindol-4-yl}amino)butyl]hexanediamide; trifluoroacetic acid]	90.2	–	–	excellent yield	–
CNCCOCCc1ccc(NC(=O)NCc2ccc3c(c2)CN(C2CCC(=O)N(CN(C)C(=O)OCc4ccc(O[C@@H]5O[C@H](C(=O)O)[C@@H](O)[C@H](O)[C@H]5O)c(NC(=O)CCNC(=O)CCN5C(=O)C=CC5=O)c4)C2=O)C3=O)cc1Cl (stereo partly drawn) [Compound (XLI), (2S,3S,4S,5R,6S)-6-[4-({[({3-[5-({[(3-chloro-4-{2-[2-(methylamino)ethoxy]ethyl}phenyl)carbamoyl]amino}methyl)-1-oxo-3H-isoindol-2-yl]-2,6-dioxopiperidin-1-yl}methyl)(methyl)carbamoyl]oxy}methyl)-2-{3-[3-(2,5-dioxopyrrol-1-yl)propanamido]propanamido}phenoxy]-3,4,5-trihydroxyoxane-2-carboxylic acid]	–	–	–	–	% Payload Released ([3]; 10 μM compound, β-glucuronidase, 37° C., 3 hours): 90.9%; yield of desired payload released by β-glucuronidase (in words) ([3]; β-glucuronidase treatment): excellent yield
N#Cc1ccc(O[C@H]2CC[C@H](NC(=O)c3ccc(N4CCC(CN5CCN(c6cc7c(cc6F)C(=O)N(C6CCC(=O)N(CNC(=O)CNC(=O)CNC(=O)[C@H](Cc8ccccc8)NC(=O)CNC(=O)CNC(=O)CCCCCN8C(=O)C=CC8=O)C6=O)C7=O)CC5)CC4)nn3)CC2)cc1Cl (stereo partly drawn) [Compound (XV), 6-(4-{[4-(2-{1-[(2-{2-[(2S)-2-(2-{2-[6-(2,5-dioxopyrrol-1-yl)hexanamido]acetamido}acetamido)-3-phenylpropanamido]acetamido}acetamido)methyl]-2,6-dioxopiperidin-3-yl}-6-fluoro-1,3-dioxoisoindol-5-yl)piperazin-1-yl]methyl}piperidin-1-yl)-N-[(1r,4r)-4-(3-chloro-4-cyanophenoxy)cyclohexyl]pyridazine-3-carboxamide]	5.8	78.3%,	uncleaved 15.8%	lower yields of the desired payload	–
CSCCc1ccc(NC(=O)NCc2ccc3c(c2)CN(C2CCC(=O)N(CNC(=O)CNC(=O)CNC(=O)[C@H](Cc4ccccc4)NC(=O)CNC(=O)CNC(=O)CCCCCN4C(=O)C=CC4=O)C2=O)C3=O)cc1Cl (stereo partly drawn) [Compound (XVII), N-{[({[(1S)-1-[({[({[3-(5-{[({3-chloro-4-[2-(methylsulfanyl)ethyl]phenyl}carbamoyl)amino]methyl}-1-oxo-3H-isoindol-2-yl)-2,6-dioxopiperidin-1-yl]methyl}carbamoyl)methyl]carbamoyl}methyl)carbamoyl]-2-phenylethyl]carbamoyl}methyl)carbamoyl]methyl}-6-(2,5-dioxopyrrol-1-yl)hexanamide] ({Hexanoyl(6-maleimido)}-GGFGG-X1)	10.7	72.5%,	uncleaved 16.8%	lower yields of the desired payload	–
CNCCOCCc1ccc(NC(=O)NCc2ccc3c(c2)CN(C2CCC(=O)N(CNC(=O)CNC(=O)[C@H](Cc4ccccc4)NC(=O)CNC(=O)CNC(=O)CCCCCN4C(=O)C=CC4=O)C2=O)C3=O)cc1Cl (stereo partly drawn) [Compound (XVIII), N-{[({[(1S)-1-({[({3-[5-({[(3-chloro-4-{2-[2-(methylamino)ethoxy]ethyl}phenyl)carbamoyl]amino}methyl)-1-oxo-3H-isoindol-2-yl]-2,6-dioxopiperidin-1-yl}methyl)carbamoyl]methyl}carbamoyl)-2-phenylethyl]carbamoyl}methyl)carbamoyl]methyl}-6-(2,5-dioxopyrrol-1-yl)hexanamide]	97.8	–	–	excellent yield	–
B1	–	–	–	–	EC50 [4]: 0.27 nM
B2	–	–	–	–	EC50 [4]: 0.22 nM
B3	–	–	–	–	EC50 [4]: 0.22 nM

From US20250144230A1, “LINKERS FOR USE IN ANTIBODY DRUG CONJUGATES” (Orum Therapeutics, Inc., priority 2021, published 2025)
